This is an account of results in PubChem BioAssay (NCI).

For orientation: TGI means the concentration giving total growth inhibition. Read a high TGI as less potent growth arrest. Broadly, the GI50 is the concentration at which growth is held to half of that of the control.

Holding throughout (assay): DTP human tumour cell line panel, 48 h
The test system of assay [1] is A498 renal.
Assay [2] has as its system U251 CNS.
Assay [3] relates to IGROV1 ovarian.
Assay [4] deals with SF-268 CNS.
Assay [5] deals with SK-MEL-28 melanoma.
Assay [6] deals with K-562 leukemia.
Assay [7] deals with SNB-75 CNS.
Assay [8] has as its system HCT-15 colon.
Assay [9] deals with SK-MEL-5 melanoma.
Assay [10] deals with DU-145 prostate.

Where “and” joins values, the source holds several entries; their conditions need not be identical. Identical values can stand only once.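 Interpolation was linear, between the two tested concentrations surrounding the appropriate level; five concentrations were tested over 48 hours in 96-well plates. Abbreviation: GI50, concentration required for 50% inhibition of growth. The concentration for full growth arrest is given as TGI.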 A value given as a limit tells only on which side of the number the result lay.

For `COc1cc(CC(=O)O)c([N+](=O)[O-])cc1OC`, the total growth inhibition concentration (TGI) in [1], in assay [2], in assay [3], in assay [4], in assay [5] and in assay [6] was above 100 µM in each case. Further, the TGI in assay [7] and in assay [8] was above 100 µM throughout.

On to `Cc1cc(C)c(/C=N/NS(=O)(=O)c2ccccc2)c(C)c1`, for which the TGI in assay [1], in assay [2], in assay [3], in assay [4], in assay [5] and in assay [6] was above 100 µM throughout. Moreover, the concentration for total growth inhibition (TGI) in assay [7], in assay [8] and in assay [9] was above 100 µM in each case.

Turning to `N#Cc1cccc(C2C(=O)c3ccc(C(=O)c4ccc5c(c4)C(=O)N(c4ccc(Oc6ccc(N7C(=O)c8ccc(C(=O)c9ccc%10c(c9)C(=O)N(c9cccc(C#N)c9)C%10=O)cc8C7=O)cc6)cc4)C5=O)cc3C2=O)c1` (stereo not drawn), the TGI in [2], in [3], in [4], in [5], in [6] and in assay [7] was above 100 µM each time. Besides, the TGI in assay [8] and in assay [9] was above 100 µM each time.

As for `Cc1ccc(NC(=O)CC2SC(=Nc3ccc(Cl)cc3)NC2=O)cc1C` (stereo not drawn), the TGI in [1] was 43.2 µM; in assay [2] it was 32.7 µM; in [3] it was above 60.8 µM; in assay [4] it was 33.4 µM; in assay [5] it was 33.9 µM; in [6] it was above 58.5 µM. The results for the TGI in [7], in [8] and in [9] were 33.2 µM, 29.3 µM and 36.6 µM, respectively.

`Fc1ccc(N=C2C=CC(=Nc3ccc(F)cc3)c3ccccc32)cc1`: the TGI in [1], in assay [2], in assay [3], in assay [4], in assay [5] and in [6] was above 100 µM throughout. The TGI in assay [7], in assay [8] and in assay [9] was above 100 µM throughout.

Take `CC1=CC[C@@H](C(C)(C)O)C[C@@H]1O`: the TGI in assay [1], in assay [2], in assay [3], in assay [4], in [5] and in assay [6] was above 5000 µM in each case. The TGI in assay [7], in assay [8] and in assay [9] was above 5000 µM in each case.

Turning to `CC1C(O)=C(O)c2ccccc2N1O` (stereo not drawn), the total growth inhibition concentration (TGI) in [1], in [2], in assay [3], in assay [4], in assay [5] and in assay [6] was above 100 µM each time. The total growth inhibition concentration (TGI) in assay [7], in [8] and in assay [9] was above 100 µM each time.

As for `Clc1ccccc1C1SCc2nc3ccccc3n21` (stereo not drawn), the TGI in assay [2] was 54.8 µM; in assay [3], above 100 µM; in [4], above 100 µM; in [5], 76.4 µM; in assay [6], above 100 µM; in [7], 11.3 µM. In addition, the figures for the total growth inhibition concentration (TGI) in assay [8] and in [9] were above 100 µM and 33.7 µM, respectively.

As for `CCn1ncc(N=O)c1N`, the total growth inhibition concentration (TGI) in assay [3], in assay [4], in [10], in assay [5], in [6] and in assay [7] was above 100 µM throughout. In addition, the TGI in assay [8] and in assay [9] was above 100 µM each time. Also, the GI50 in assay [7] was 22 µM and 58 µM.

With `Cc1ccccc1-n1c(CCl)nc2ccc(Br)cc2c1=O`, the concentration for total growth inhibition (TGI) was determined as 60.8 µM in assay [1]; 25.9 µM in assay [2]; 33.1 µM in assay [3]; 10.8 µM in assay [4]; 32.5 µM in [5]; 29 µM in assay [7]. Besides, the results for the total growth inhibition concentration (TGI) in assay [8] and in [9] were 14.4 µM and 22.9 µM, respectively.

As for `CCCCCCCCCC[C@H](O)[C@H]1CC[C@@H]([C@@H](O)CC[C@H](O)[C@@H]2CCC(CCCCCCC[C@@H](O)CC3=C[C@H](C)OC3=O)O2)O1` (stereo partly drawn), the GI50 was 8.25 µM in [2]; 5.17 µM in assay [3]; 8.17 µM in assay [4]; 7.62 µM in assay [5]; 9.29 µM in [7]; 7.02 µM in assay [8]. Further, the concentration for total growth inhibition (TGI) was 4.99 µM and 21.1 µM in assay [3]; 5.44 µM and 39 µM in assay [5]; 19.2 µM in assay [6]; 9.56 µM and 28.1 µM in [7]; 30.8 µM in assay [8]; 3.48 µM and 3.24 µM in [9].

On to `CC(=O)O[C@@H]1CC[C@@]2(C)C(=O)C34C[C@@]5(C)C([C@@H](C)CCCC(C)C)CCC5(C)[C@](O)(O3)C(=O)[C@H]4C2C1(C)C` (stereo partly drawn), for which the TGI in assay [1] came to 38.5 µM; in assay [2], 27.4 µM; in assay [3], 31.6 µM; in assay [4], 34.9 µM; in assay [5], 35.6 µM; in assay [6], 29.9 µM. Also, the TGI in [7] was found to be 29.6 µM; in [8], 26.5 µM; in assay [9], 28.4 µM.

Regarding `[CH3][Hg]/[N]=C(/N)NC#N`, the GI50 was 17.7 µM in assay [1]; 23.6 µM in assay [2]; 18.9 µM in assay [3]; 16.3 µM in assay [4]; 11.9 µM in assay [5]; 1.69 µM in assay [6]. In addition, the GI50 in assay [7] is 12.1 µM; in assay [8] it was 3.02 µM; in [9], 8.9 µM. The TGI is 31.7 µM in [1]; 56 µM in [2]; 36.6 µM in [3]; 33.3 µM in [4]; 30.1 µM in assay [5]; above 100 µM in assay [6]. In addition, the total growth inhibition concentration (TGI) worked out at 24.4 µM in assay [7], 12.1 µM in assay [8] and 21.1 µM in [9].

For `O=C(Cc1nc2ccccc2o1)C(=O)Nc1ccc(Cl)cc1Cl`, the TGI in assay [1], in assay [2], in assay [3], in [4], in assay [5] and in assay [6] was above 100 µM each time. Further, the TGI in assay [7] and in assay [8] was above 100 µM each time.

For `CCN(CC)CC(O)c1cc(-c2ccc(Cl)cc2)nc2c(C)c(Cl)ccc12` (stereo not drawn), the GI50 in assay [2] was 1.77 µM; in assay [3], 1 µM; in [4], 1.61 µM; in assay [10] it was 1.7 µM; in assay [5], 1.78 µM; in [6], 1.66 µM. Further, the results for the GI50 in assay [7] and in [9] were 1.37 µM and 1.7 µM, respectively. The TGI was 3.33 µM in assay [2]; 2.36 µM in assay [3]; 3.05 µM in assay [4]; 3.08 µM in assay [10]; 3.17 µM in [5]; 4.26 µM in assay [6]. Moreover, the concentration for total growth inhibition (TGI) turned out to be 2.65 µM in [7] and 3.11 µM in assay [9].

With `CC1=C(C(=O)Nc2ccc(C)cc2)C(c2cccc([N+](=O)[O-])c2)C(C(=O)Nc2ccc(C)cc2)=C(C)N1`, the total growth inhibition concentration (TGI) in [1] is 55.3 µM; in [2] it was 75.6 µM; in assay [3], 66.8 µM; in assay [4] it was 52.2 µM; in [5], above 100 µM; in [6], 63.5 µM. Further, the total growth inhibition concentration (TGI) in assay [7] was 81.4 µM; in assay [8], above 100 µM; in assay [9], 44.3 µM.

In the case of `COc1ccc2nc3ccccc3c(NCCN(CCCl)CCCl)c2c1`, the TGI in assay [1] came out at 5.73 µM; in assay [2], 2.31 µM; in assay [3] it was 4.34 µM; in assay [4] it was 5.74 µM; in assay [5] it was 5.28 µM; in assay [6] it was 4.92 µM. The concentration for total growth inhibition (TGI) in [7] was found to be 5.72 µM.

As to `N#CCCN(c1ccc(C=O)cc1)S(=O)(=O)c1ccccc1`, the TGI in assay [1], in assay [2], in [3], in assay [4], in [5] and in [6] was above 100 µM throughout. Also, the TGI in [7], in assay [8] and in [9] was above 100 µM throughout.

In the case of `CC(=O)Nc1ccc(C2=N/C(=C\c3ccc(Cl)cc3)C(=O)O2)cc1`, the concentration for total growth inhibition (TGI) in assay [1] is above 100 µM; in assay [2], above 100 µM; in [3] it was above 100 µM; in [4], 90.9 µM; in assay [5], above 100 µM; in [6], 51.8 µM. Also, the figures for the concentration for total growth inhibition (TGI) in [7], in [8] and in assay [9] were above 100 µM, 37.1 µM and above 100 µM, respectively.

For `O=C(CC1(O)C(=O)Nc2ccccc21)c1ccccc1O` (stereo not drawn), the concentration for total growth inhibition (TGI) in assay [1], in assay [3], in assay [4], in assay [5], in assay [6] and in assay [7] was above 100 µM throughout. The TGI in assay [8] and in [9] was above 100 µM in each case.

Turning to `Cc1cc(C)nc(NS(=O)(=O)c2ccc(NC(=O)COC(=O)c3cccc4c(=O)c5ccccc5[nH]c34)cc2)n1`, the concentration for total growth inhibition (TGI) in [1] is above 100 µM; in [2] it was 38.4 µM; in assay [3], above 100 µM; in assay [4], above 100 µM; in [5] it was above 100 µM; in assay [6], 98.8 µM. The TGI in [7] is 73.5 µM; in assay [8] it was above 100 µM; in assay [9], above 100 µM.

For the compound `COc1cc(C2CC(c3cccc(Nc4ccnc5cc(Cl)ccc45)c3)=NN2c2ccccc2)cc(OC)c1OC` (stereo not drawn), the GI50 in assay [3] was 29.2 µM; in assay [4] it was 75.5 µM; in [10], above 100 µM; in [5], 10.4 µM; in [6] it was 3.75 µM; in assay [7], 6.6 µM. Further, the GI50 in assay [8] was 2.91 µM; in assay [9] it was 4.56 µM. The total growth inhibition concentration (TGI) in assay [3], in assay [4], in assay [10], in assay [5], in [6] and in assay [7] was above 100 µM throughout. For the same compound, the values for the TGI in [8] and in [9] were above 100 µM and 23.8 µM, respectively.

With `COc1ccc([C@@H]2OC(=O)C3C2C(=O)O[C@H]3c2ccc(OC)cc2)cc1` (stereo partly drawn), the TGI in assay [1], in assay [2], in [3], in assay [5], in [6] and in assay [7] was above 100 µM in each case. This compound also returned a total growth inhibition concentration (TGI) in assay [8] above 100 µM.

`COC(=O)C(C(=O)C(=O)Nc1ccccc1C)c1nc2ccc([N+](=O)[O-])cc2[nH]c1=O` (stereo not drawn): the total growth inhibition concentration (TGI) in assay [1], in assay [2], in [3], in [4], in [5] and in assay [6] was above 100 µM in each case. For the same compound, the TGI in [7], in [8] and in [9] was above 100 µM each time.

For `Cc1cc(Cl)cc2c1NC(=O)C2(O)C(C(=O)c1ccccc1)c1ccccc1` (stereo not drawn), the concentration for total growth inhibition (TGI) is 65.7 µM in assay [1]; above 100 µM in [2]; 83 µM in assay [3]; > 100 µM and 95.3 µM in assay [4]; > 100 µM and 51 µM in assay [5]; above 100 µM in assay [6]. The TGI is 83.2 µM and 60.7 µM in [7]; above 100 µM in assay [8]; 45.4 µM in assay [9]. The GI50 in assay [2] was > 100 µM and 31.1 µM; in [4], 84.3 µM and 34.8 µM; in assay [5] it was 96.6 µM and 24.5 µM.

With `CCOC(=O)C(=O)C(C#N)c1ccc(Cl)cc1` (stereo not drawn), the TGI in [1], in assay [2], in [3], in assay [4], in assay [5] and in assay [6] was above 100 µM each time. The concentration for total growth inhibition (TGI) in assay [7], in assay [8] and in [9] was above 100 µM throughout.
